The source made the active and inactive calls. The rule behind the calls is not given here.

One data set deals with BMMC. Nature of the data set: Cytotoxicity against C57BL/6 mouse bone marrow macrophage cells assessed as reduction in cell viability up to 10 uM incubated for 72 hrs by MTT assay.
Conditions: not given
In kind it is toxicity, cell-based. Background: Tetrazolium assays rely on reduction of a dye to a coloured formazan, in cell work by metabolically active cells.
Turning to `COC(=O)c1ccc(-c2cc(F)cc([C@H]3N(C(=O)OC(C)(C)C)CC[C@]34C(=O)Nc3ccccc34)c2)cc1S(C)(=O)=O`, the Activity entry was “Non-Toxic”.

The next data set has as its system BMMC. Put plainly: Anti-osteoporosis activity in C57BL/6 mouse bone marrow macrophage cells assessed as inhibition of RANKL-induced osteoclastogenesis measured after 5 days in presence of MCSF by TRAP staining based assay. In kind it is functional, cell-based. Conditions: C57BL/6, BMMC, 120 h.
Take `COC(=O)c1c[nH]c2cc(-c3cc(F)cc([C@H]4N(C(=O)OC(C)(C)C)CC[C@]45C(=O)Nc4ccccc45)c3)ccc12`: the IC50 was 2890 nM.
Same read-out and setting: for `COC(=O)c1ccc(-c2cc(F)cc([C@H]3N(S(=O)(=O)C(C)C)CC[C@]34C(=O)N(C)c3ccccc34)c2)cc1S(C)(=O)=O` the value was 200 nM; for `COC(=O)c1ccc(-c2cc(F)cc([C@H]3N(C(=O)OC(C)(C)C)CC[C@]34C(=O)N(C)c3ccccc34)c2)cc1S(C)(=O)=O`, 2170 nM; for `COC(=O)c1ccc(-c2cc(F)cc([C@H]3N(C(=O)OC(C)(C)C)CC[C@]34C(=O)Nc3ccccc34)c2)cc1Cl`, 8780 nM.
With `COC(=O)Cc1ccc(-c2cc(F)cc([C@H]3N(C(=O)OC(C)(C)C)CC[C@]34C(=O)Nc3ccccc34)c2)cc1Cl`, the IC50 came to 3400 nM.
Still for that read-out and setting: as for `CC(C)(C)CC(=O)N1CC[C@]2(C(=O)Nc3ccccc32)[C@H]1c1cccc(-c2ccc(CO)c(S(C)(=O)=O)c2)c1`, the figure is 360 nM; as for `COC(=O)c1c(F)cc(-c2cc(F)cc([C@H]3N(C(=O)OC(C)(C)C)CC[C@]34C(=O)Nc3ccccc34)c2)cc1F`, 4140 nM; as for `CC(C)(C)OC(=O)N1CC[C@]2(C(=O)Nc3ccccc32)[C@H]1c1cccc(-c2ccc(CO)c(S(C)(=O)=O)c2)c1`, 200 nM.
In the case of `COC(=O)c1cn(C)c2cc(-c3cc(F)cc([C@H]4N(C(=O)OC(C)(C)C)CC[C@]45C(=O)Nc4ccccc45)c3)ccc12`, the IC50 came to 1560 nM.
In the case of `COCc1ccc(-c2cc(F)cc([C@H]3N(C(=O)OC(C)(C)C)CC[C@]34C(=O)N(C)c3ccccc34)c2)cc1S(C)(=O)=O`, the IC50 was determined as 220 nM.
Still for that read-out and setting: for `COCc1ccc(-c2cc(F)cc([C@H]3N(S(=O)(=O)C(C)C)CC[C@]34C(=O)N(C)c3ccccc34)c2)cc1S(C)(=O)=O` the value was 200 nM; for `COC(=O)Cn1ccc2cc(-c3cc(F)cc([C@H]4N(C(=O)OC(C)(C)C)CC[C@]45C(=O)Nc4ccccc45)c3)ccc21`, 3400 nM; for `COC(=O)c1ccc(-c2cccc([C@H]3N(C(=O)OC(C)(C)C)CC[C@]34C(=O)N(C)c3ccccc34)c2)cc1S(C)(=O)=O`, 200 nM.

In a further data set the test system is BMMC. Nature of the data set: Anti-osteoporosis activity in C57BL/6 mouse bone marrow macrophage cells assessed as inhibition of RANKL-induced osteoclastogenesis at more than 10 uM measured after 5 days in presence of MCSF by TRAP staining based assay. The format is functional, cell-based. As to conditions: time 5.0 day.
In the case of `CC(C)(C)OC(=O)N1CC[C@]2(C(=O)Nc3ccccc32)[C@H]1c1cc(F)cc(-c2ccc(C(=O)O)c(S(C)(=O)=O)c2)c1`, the inhibition entry is “inactive”.
With `CC(C)(C)OC(=O)N1CC[C@]2(C(=O)Nc3ccccc32)[C@H]1c1cc(F)cc(-c2ccc(CC(=O)O)c(Cl)c2)c1`, the inhibition result was “inactive”.

By IC50 is commonly meant the concentration needed to halve the response being measured.

Values taken from ChEMBL document CHEMBL5316277, “Discovery of Spiro[pyrrolidine-3,3'-oxindole] LXRβ Agonists for the Treatment of Osteoporosis” (J Med Chem, 2023).
